Activity calls are given as the source filed them. No cut-off for these calls is given here.
Experiments:
[1] = target: T1, Protein cereblon/Mitogen-activated protein kinase kinase kinase kinase 1 (Homo sapiens, UniProt Q92918+Q96SW2); assay: PROTAC activity at CRBN/HPK1 in human Jurkat cells assessed as degradation of HPK1 protein incubated for 24 hrs by Western blotting analysis; format: cell-based
Target sequence in this assay (Q92918 whole entry): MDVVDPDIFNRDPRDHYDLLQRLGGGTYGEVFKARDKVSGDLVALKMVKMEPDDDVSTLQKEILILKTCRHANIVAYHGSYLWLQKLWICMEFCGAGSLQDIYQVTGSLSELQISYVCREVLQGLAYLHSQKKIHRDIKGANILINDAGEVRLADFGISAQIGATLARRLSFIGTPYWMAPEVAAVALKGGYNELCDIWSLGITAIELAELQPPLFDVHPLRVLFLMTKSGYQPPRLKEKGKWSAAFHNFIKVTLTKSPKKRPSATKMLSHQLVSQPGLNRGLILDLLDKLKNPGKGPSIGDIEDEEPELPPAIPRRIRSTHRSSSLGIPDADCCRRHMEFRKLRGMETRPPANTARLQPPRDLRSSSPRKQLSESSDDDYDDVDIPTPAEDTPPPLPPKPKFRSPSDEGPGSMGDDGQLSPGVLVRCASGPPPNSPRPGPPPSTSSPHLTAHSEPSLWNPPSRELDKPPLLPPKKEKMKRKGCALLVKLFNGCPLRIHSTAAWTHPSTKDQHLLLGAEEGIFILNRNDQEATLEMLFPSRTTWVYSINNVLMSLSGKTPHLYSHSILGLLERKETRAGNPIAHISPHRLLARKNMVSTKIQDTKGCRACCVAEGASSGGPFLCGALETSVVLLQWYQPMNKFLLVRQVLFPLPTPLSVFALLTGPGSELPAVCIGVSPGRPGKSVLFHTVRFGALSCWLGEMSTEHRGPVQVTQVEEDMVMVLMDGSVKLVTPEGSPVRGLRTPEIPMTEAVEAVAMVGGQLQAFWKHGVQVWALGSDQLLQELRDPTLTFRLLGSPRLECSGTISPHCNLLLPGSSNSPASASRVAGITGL
Target sequence in this assay (Q96SW2 whole entry): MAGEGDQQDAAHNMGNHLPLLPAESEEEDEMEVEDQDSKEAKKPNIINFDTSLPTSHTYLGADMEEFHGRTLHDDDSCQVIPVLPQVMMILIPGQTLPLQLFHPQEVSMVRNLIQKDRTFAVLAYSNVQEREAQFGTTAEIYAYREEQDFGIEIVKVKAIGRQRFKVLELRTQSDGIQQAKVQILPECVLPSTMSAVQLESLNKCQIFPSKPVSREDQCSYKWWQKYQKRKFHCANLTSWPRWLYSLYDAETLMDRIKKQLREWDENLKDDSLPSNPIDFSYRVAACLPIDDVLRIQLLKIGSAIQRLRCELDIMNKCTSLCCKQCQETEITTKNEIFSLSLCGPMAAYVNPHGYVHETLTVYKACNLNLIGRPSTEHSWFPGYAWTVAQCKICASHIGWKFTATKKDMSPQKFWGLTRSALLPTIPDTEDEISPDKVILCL

[2] = target: T1, Protein cereblon/Mitogen-activated protein kinase kinase kinase kinase 1; assay: PROTAC activity at CRBN/HPK1 in human Jurkat cells assessed as maximal degradation of HPK1 protein incubated for 24 hrs by Western blotting analysis relative to control; format: cell-based
Target sequence in this assay (Q92918 whole entry, looked up): as the sequence (Q92918 whole entry) above
Target sequence in this assay (Q96SW2 whole entry, looked up): as the sequence (Q96SW2 whole entry) above

[3] = Half life in Sprague-Dawley rat at 10 mg/kg,po measured upto 24 hrs by LC-MS analysis; format: ADME, organism-based; settings: in vivo
[4] = Tmax in Sprague-Dawley rat at 10 mg/kg,po measured upto 24 hrs by LC-MS analysis; format: ADME, organism-based; settings: in vivo
[5] = Cmax in Sprague-Dawley rat at 10 mg/kg,po measured upto 24 hrs by LC-MS analysis; format: ADME, organism-based; settings: in vivo
[6] = AUC (0 to t) in Sprague-Dawley rat at 10 mg/kg,po measured upto 24 hrs by LC-MS analysis; format: ADME, organism-based; settings: in vivo
[7] = MRT in Sprague-Dawley rat at 10 mg/kg,po measured upto 24 hrs by LC-MS analysis; format: ADME, organism-based; settings: in vivo
T-cell line = assay: Immunostimulatory activity in human T cell assessed as increase in IL-2 secretion at 10 uM relative to control; format: functional
Jurkat [8] = assay: Antiproliferative activity against human Jurkat cells assessed as inhibition of cell growth at 2 uM incubated for 3 days by CCK-8 assay; format: functional, cell-based; settings: time 3.0 day
Jurkat [9] = assay: Antiproliferative activity against human Jurkat cells assessed as inhibition of cell growth at 10 uM incubated for 3 days by CCK-8 assay; format: functional, cell-based; settings: time 3.0 day
[10] = target: Mitogen-activated protein kinase kinase kinase kinase 1 (Homo sapiens, UniProt Q92918); assay: Inhibition of HPK1 (unknown origin)
Sequence of Mitogen-activated protein kinase kinase kinase kinase 1 (Q92918 whole entry): as the sequence (Q92918 whole entry) above

CT26 = assay: Antitumor activity against mouse CT26 cells implanted BALB/c mouse model assessed as tumor growth inhibition at 25 mg/kg,po administrated once daily for 15 days relative to control; format: functional; settings: CT26, 360 h, time 15 day, read-out: TGI

Compound | DC50 [1] [nM] | Emax [2] [%] | also measured
Cc1cc(-c2c[nH]c3ncc(-c4ccc(C5CCN(C(=O)CNc6cccc7c6C(=O)N(C6CCC(=O)NC6=O)C7=O)CC5)cc4)nc23)ccc1C(=O)N(C)C (configuration not stated) | > 10000 | 0.1 | 
Cc1cc(-c2c[nH]c3ncc(-c4ccc(C5CCN(C6CN(C(=O)C7CCN(c8ccc(C(=O)NC9CCC(=O)NC9=O)cc8)CC7)C6)CC5)cc4)nc23)ccc1C(=O)N(C)C (configuration not stated) | > 10000 | 24.2 | 
Cc1cc(-c2c[nH]c3ncc(-c4ccc(C5CCN(C6CN(C(=O)C7CCN(c8ccc(NC9CCC(=O)NC9=O)cc8)CC7)C6)CC5)cc4)nc23)ccc1C(=O)N(C)C (configuration not stated) | > 10000 | 41.4 | 
Cc1cc(-c2c[nH]c3ncc(-c4ccc(N5CCN(C6CCN(c7ccc8c(c7)C(=O)N(C7CCC(=O)NC7=O)C8=O)CC6)CC5)cc4)nc23)ccc1C(=O)N(C)C (configuration not stated) | 99.2 | 56.1 | 
Cc1cc(-c2c[nH]c3ncc(-c4ccc(N5CCN(CC6CN(c7ccc8c(c7)C(=O)N(C7CCC(=O)NC7=O)C8=O)C6)CC5)cc4)nc23)ccc1C(=O)N(C)C (configuration not stated) | 134 | 94.6 | half-life [3]: 4.86 h; Tmax [4]: 3 h; Cmax [5]: 1500 ng/mL; AUC(0-t) at 24 h [6]: 16000 ng·h/mL; MRT [7]: 6.84 h
Cc1cc(-c2c[nH]c3ncc(-c4ccc(N5CCN(C6CN(c7ccc8c(c7)C(=O)N(C7CCC(=O)NC7=O)C8=O)C6)CC5)cc4)nc23)ccc1C(=O)N(C)C (configuration not stated) | 28.2 | 68.3 | 
Cc1cc(-c2c[nH]c3ncc(-c4ccc(N5CCN(CCC6CCN(c7ccc8c(c7)C(=O)N(C7CCC(=O)NC7=O)C8=O)CC6)CC5)cc4)nc23)ccc1C(=O)N(C)C (configuration not stated) | > 10000 | 48.2 | 
Cc1cc(-c2c[nH]c3ncc(-c4ccc(C5CCN(C6CN(C(=O)Cc7ccc(NC8CCC(=O)NC8=O)cc7)C6)CC5)cc4)nc23)ccc1C(=O)N(C)C (configuration not stated) | > 10000 | 38.5 | 
Cc1cc(-c2c[nH]c3ncc(-c4ccc(C5CCN(C6CCN(c7ccc8c(c7)C(=O)N(C7CCC(=O)NC7=O)C8=O)C6)CC5)cc4)nc23)ccc1C(=O)N(C)C (configuration not stated) | 94 | 76.6 | 
Cc1cc(-c2c[nH]c3ncc(-c4ccc(C5CCN(C6CN(C(=O)CNc7cccc8c7C(=O)N(C7CCC(=O)NC7=O)C8=O)C6)CC5)cc4)nc23)ccc1C(=O)N(C)C (configuration not stated) | > 10000 | 22.7 | 
Cc1cc(-c2c[nH]c3ncc(-c4cc(C)c5c(c4)CN(C)CC5)nc23)ccc1C(=O)N(C)C |  |  | Activity (T-cell line): 34.15%; Activity (Jurkat [8]): Active; Activity (Jurkat [9]): Active; IC50 [10]: 5.82 nM; inhibition in vivo at 25 mg/kg (CT26): 16.5%
Cc1cc(-c2c[nH]c3ncc(-c4ccc(C5CCN(CC6CCN(c7ccc8c(c7)C(=O)N(C7CCC(=O)NC7=O)C8=O)CC6)CC5)cc4)nc23)ccc1C(=O)N(C)C (configuration not stated) | 420 | 84.1 | 
Cc1cc(-c2c[nH]c3ncc(-c4ccc(C5CCN(C6CN(C7CN(c8ccc9c(c8)C(=O)N(C8CCC(=O)NC8=O)C9=O)C7)C6)CC5)cc4)nc23)ccc1C(=O)N(C)C (configuration not stated) | 295 | 58.1 | 
Cc1cc(-c2c[nH]c3ncc(-c4ccc(C5CCN(c6ccc7c(c6)C(=O)N(C6CCC(=O)NC6=O)C7=O)CC5)cc4)nc23)ccc1C(=O)N(C)C (configuration not stated) | > 10000 | 3.4 | 
Cc1cc(-c2c[nH]c3ncc(-c4ccc(C5CCN(C(=O)C6CCN(c7ccc8c(c7)C(=O)N(C7CCC(=O)NC7=O)C8=O)CC6)CC5)cc4)nc23)ccc1C(=O)N(C)C (configuration not stated) | 1750 | 63.6 | 
Cc1cc(-c2c[nH]c3ncc(-c4ccc(C5CCN(C(=O)CCOc6cccc7c6C(=O)N(C6CCC(=O)NC6=O)C7=O)CC5)cc4)nc23)ccc1C(=O)N(C)C (configuration not stated) | > 10000 | 6.7 | 
Cc1cc(-c2c[nH]c3ncc(-c4ccc(N5CCN(CC6CCN(c7ccc8c(c7)C(=O)N(C7CCC(=O)NC7=O)C8=O)C6)CC5)cc4)nc23)ccc1C(=O)N(C)C (configuration not stated) | 246 | 56.6 | 
